Patent publication US20200370087A1, “METHOD FOR DETERMINING MICROBIAL SUSCEPTIBILITY TO ANTIBIOTIC AGENTS” (Ascilion AB, priority 2017, published 2020)

Legend:
[1] = test system: Escherichia coli (ATCC 25922); assay: Glucose consumption susceptibility test, blood culture diluted in MHB with glucose (Example 1); assay type: cell-based; parameters: glucose concentration, t = 0 / glucose concentration, t = 60 / glucose concentration, t = 120 / glucose concentration, t = 180 / dC/dT (rate of change in glucose concentration) / glucose concentration, t = 240: unit not given here; conditions: for F = the rate of change in glucose concentration in relation to the reference / dC/dT (rate of change in glucose concentration) / glucose concentration, t = 0 / glucose concentration, t = 60 / glucose concentration, t = 120 / glucose concentration, t = 180 / glucose concentration, t = 240: E. coli; for glucose concentration, t = 0: 0 minutes; for glucose concentration, t = 60: 60 minutes; for glucose concentration, t = 120: 120 minutes; for glucose concentration, t = 180: 180 minutes; for glucose concentration, t = 240: 240 minutes
Protocol: (§1) Strains of Escherichia coli (ATCC 25922), Enterococcus faecalis (ATCC 29212) and Staphylococcus aureus (ATCC 29213) were inoculated in blood culture bottles (SVA, Uppsala, Sweden) and cultivated according to the manufacturer's instructions until positive.
(§2) Medium from each blood culture bottle was diluted 1:100 with cation adjusted Mueller-Hinton broth (SVA, Uppsala, Sweden) supplemented with glucose to a concentration of 1.0 mg/mL.
(§3) Glucose concentrations were measured at 0, 60, 120, 180, and 240 minutes using a WaveSense Jazz glucometer (AgaMatrix, Inc., Salem, N.H., USA) with accompanying test strips.
(§4) Susceptibility scores corresponding to MIC values were calculated as described above. A 80% threshold was applied, i.e. the lowest concentration of antibiotic that entailed a rate of change in glucose concentration that was equal to or less than 80% of the reference was selected as the Minimal Inhibitory Concentration. The rate of change was calculated between the measurements at 60 and 180 minutes.

[2] = test system: Staphylococcus aureus (ATCC 29213); assay: as above; assay type: cell-based; parameters: glucose concentration, t = 0 / glucose concentration, t = 60 / glucose concentration, t = 120 / glucose concentration, t = 180 / glucose concentration, t = 240 / dC/dT (rate of change in glucose concentration): unit not given here; conditions: for F = the rate of change in glucose concentration in relation to the reference / dC/dT (rate of change in glucose concentration) / glucose concentration, t = 0 / glucose concentration, t = 60 / glucose concentration, t = 120 / glucose concentration, t = 180 / glucose concentration, t = 240: S. aureus; for glucose concentration, t = 0: 0 minutes; for glucose concentration, t = 60: 60 minutes; for glucose concentration, t = 120: 120 minutes; for glucose concentration, t = 180: 180 minutes; for glucose concentration, t = 240: 240 minutes
Protocol: as §1, §2, §3, §4

[3] = test system: Staphylococcus aureus ATCC 29213; conditions: S.aureus, cited from earlier work

gentamicin
F = the rate of change in glucose concentration in relation to the reference ([1]; antibiotic 0.25 μg/mL): 139% | dC/dT (rate of change in glucose concentration) ([1]; antibiotic 0.25 μg/mL): 86 | glucose concentration, t = 0 ([1]; antibiotic 0.25 μg/mL): 149 | glucose concentration, t = 60 ([1]; antibiotic 0.25 μg/mL): 152 | glucose concentration, t = 120 ([1]; antibiotic 0.25 μg/mL): 144 | glucose concentration, t = 180 ([1]; antibiotic 0.25 μg/mL): 58 | F = the rate of change in glucose concentration in relation to the reference ([1]; antibiotic 0.5 μg/mL): 121% | dC/dT (rate of change in glucose concentration) ([1]; antibiotic 0.5 μg/mL): 75 | glucose concentration, t = 0 ([1]; antibiotic 0.5 μg/mL): 144 | glucose concentration, t = 60 ([1]; antibiotic 0.5 μg/mL): 147 | glucose concentration, t = 120 ([1]; antibiotic 0.5 μg/mL): 147 | glucose concentration, t = 180 ([1]; antibiotic 0.5 μg/mL): 72 | F = the rate of change in glucose concentration in relation to the reference ([1]; antibiotic 1 μg/mL): 77% | dC/dT (rate of change in glucose concentration) ([1]; antibiotic 1 μg/mL): 48 | glucose concentration, t = 0 ([1]; antibiotic 1 μg/mL): 144 | glucose concentration, t = 60 ([1]; antibiotic 1 μg/mL): 155 | glucose concentration, t = 120 ([1]; antibiotic 1 μg/mL): 148 | glucose concentration, t = 180 ([1]; antibiotic 1 μg/mL): 111 | glucose concentration, t = 240 ([1]; antibiotic 1 μg/mL): 53 | F = the rate of change in glucose concentration in relation to the reference ([1]; antibiotic 2 μg/mL): 9% | dC/dT (rate of change in glucose concentration) ([1]; antibiotic 2 μg/mL): 6 | glucose concentration, t = 60 ([1]; antibiotic 2 μg/mL): 161 | glucose concentration, t = 120 ([1]; antibiotic 2 μg/mL): 151 | glucose concentration, t = 180 ([1]; antibiotic 2 μg/mL): 143 | glucose concentration, t = 240 ([1]; antibiotic 2 μg/mL): 140 | F = the rate of change in glucose concentration in relation to the reference ([1]; antibiotic 4 μg/mL): 7% | dC/dT (rate of change in glucose concentration) ([1]; antibiotic 4 μg/mL): 5 | glucose concentration, t = 0 ([1]; antibiotic 4 μg/mL): 147 | glucose concentration, t = 60 ([1]; antibiotic 4 μg/mL): 163 | glucose concentration, t = 120 ([1]; antibiotic 4 μg/mL): 157 | glucose concentration, t = 180 ([1]; antibiotic 4 μg/mL): 148 | glucose concentration, t = 240 ([1]; antibiotic 4 μg/mL): 148 | F = the rate of change in glucose concentration in relation to the reference ([1]; antibiotic 8 μg/mL): 7% | dC/dT (rate of change in glucose concentration) ([1]; antibiotic 8 μg/mL): 5 | glucose concentration, t = 0 ([1]; antibiotic 8 μg/mL): 144 | glucose concentration, t = 60 ([1]; antibiotic 8 μg/mL): 156 | glucose concentration, t = 120 ([1]; antibiotic 8 μg/mL): 153 | glucose concentration, t = 180 ([1]; antibiotic 8 μg/mL): 150 | glucose concentration, t = 240 ([1]; antibiotic 8 μg/mL): 144 | F = the rate of change in glucose concentration in relation to the reference ([1]; antibiotic 16 μg/mL): 1% | dC/dT (rate of change in glucose concentration) ([1]; antibiotic 16 μg/mL): 1 | glucose concentration, t = 0 ([1]; antibiotic 16 μg/mL): 143 | glucose concentration, t = 60 ([1]; antibiotic 16 μg/mL): 155 | glucose concentration, t = 120 ([1]; antibiotic 16 μg/mL): 152 | glucose concentration, t = 180 ([1]; antibiotic 16 μg/mL): 149 | glucose concentration, t = 240 ([1]; antibiotic 16 μg/mL): 153 | F = the rate of change in glucose concentration in relation to the reference ([1]; antibiotic 32 μg/mL): 6% | dC/dT (rate of change in glucose concentration) ([1]; antibiotic 32 μg/mL): 4 | glucose concentration, t = 0 ([1]; antibiotic 32 μg/mL): 148 | glucose concentration, t = 60 ([1]; antibiotic 32 μg/mL): 158 | glucose concentration, t = 120 ([1]; antibiotic 32 μg/mL): 155 | glucose concentration, t = 180 ([1]; antibiotic 32 μg/mL): 150 | glucose concentration, t = 240 ([1]; antibiotic 32 μg/mL): 147 | MIC, Measured ([1]; E.coli, 80% threshold of reference rate of change, 60 to 180 minutes, N/A = not susceptible, no MIC value can be calculated): 1 µg/mL | F = the rate of change in glucose concentration in relation to the reference ([2]; antibiotic 0.25 μg/mL): 66% | dC/dT (rate of change in glucose concentration) ([2]; antibiotic 0.25 μg/mL): 22 | glucose concentration, t = 0 ([2]; antibiotic 0.25 μg/mL): 143 | glucose concentration, t = 60 ([2]; antibiotic 0.25 μg/mL): 146 | glucose concentration, t = 120 ([2]; antibiotic 0.25 μg/mL): 140 | glucose concentration, t = 180 ([2]; antibiotic 0.25 μg/mL): 102 | glucose concentration, t = 240 ([2]; antibiotic 0.25 μg/mL): 55 | F = the rate of change in glucose concentration in relation to the reference ([2]; antibiotic 0.5 μg/mL): 57% | dC/dT (rate of change in glucose concentration) ([2]; antibiotic 0.5 μg/mL): 19 | glucose concentration, t = 0 ([2]; antibiotic 0.5 μg/mL): 143 | glucose concentration, t = 60 ([2]; antibiotic 0.5 μg/mL): 154 | glucose concentration, t = 120 ([2]; antibiotic 0.5 μg/mL): 137 | glucose concentration, t = 180 ([2]; antibiotic 0.5 μg/mL): 116 | glucose concentration, t = 240 ([2]; antibiotic 0.5 μg/mL): 78 | F = the rate of change in glucose concentration in relation to the reference ([2]; antibiotic 1 μg/mL): 30% | dC/dT (rate of change in glucose concentration) ([2]; antibiotic 1 μg/mL): 10 | glucose concentration, t = 0 ([2]; antibiotic 1 μg/mL): 137 | glucose concentration, t = 60 ([2]; antibiotic 1 μg/mL): 154 | glucose concentration, t = 120 ([2]; antibiotic 1 μg/mL): 146 | glucose concentration, t = 180 ([2]; antibiotic 1 μg/mL): 134 | glucose concentration, t = 240 ([2]; antibiotic 1 μg/mL): 119 | F = the rate of change in glucose concentration in relation to the reference ([2]; antibiotic 2 μg/mL): 12% | dC/dT (rate of change in glucose concentration) ([2]; antibiotic 2 μg/mL): 4 | glucose concentration, t = 0 ([2]; antibiotic 2 μg/mL): 144 | glucose concentration, t = 60 ([2]; antibiotic 2 μg/mL): 154 | glucose concentration, t = 180 ([2]; antibiotic 2 μg/mL): 146 | glucose concentration, t = 240 ([2]; antibiotic 2 μg/mL): 148 | F = the rate of change in glucose concentration in relation to the reference ([2]; antibiotic 4 μg/mL): 10% | dC/dT (rate of change in glucose concentration) ([2]; antibiotic 4 μg/mL): 4 | glucose concentration, t = 60 ([2]; antibiotic 4 μg/mL): 157 | glucose concentration, t = 120 ([2]; antibiotic 4 μg/mL): 147 | glucose concentration, t = 180 ([2]; antibiotic 4 μg/mL): 150 | glucose concentration, t = 240 ([2]; antibiotic 4 μg/mL): 149 | F = the rate of change in glucose concentration in relation to the reference ([2]; antibiotic 8 μg/mL): 0% | dC/dT (rate of change in glucose concentration) ([2]; antibiotic 8 μg/mL): 0 | glucose concentration, t = 0 ([2]; antibiotic 8 μg/mL): 142 | glucose concentration, t = 60 ([2]; antibiotic 8 μg/mL): 154 | glucose concentration, t = 120 ([2]; antibiotic 8 μg/mL): 150 | glucose concentration, t = 180 ([2]; antibiotic 8 μg/mL): 154 | glucose concentration, t = 240 ([2]; antibiotic 8 μg/mL): 140 | F = the rate of change in glucose concentration in relation to the reference ([2]; antibiotic 16 μg/mL): 0% | dC/dT (rate of change in glucose concentration) ([2]; antibiotic 16 μg/mL): 0 | glucose concentration, t = 0 ([2]; antibiotic 16 μg/mL): 139 | glucose concentration, t = 60 ([2]; antibiotic 16 μg/mL): 145 | glucose concentration, t = 120 ([2]; antibiotic 16 μg/mL): 150 | glucose concentration, t = 180 ([2]; antibiotic 16 μg/mL): 145 | glucose concentration, t = 240 ([2]; antibiotic 16 μg/mL): 145 | F = the rate of change in glucose concentration in relation to the reference ([2]; antibiotic 32 μg/mL): 3% | dC/dT (rate of change in glucose concentration) ([2]; antibiotic 32 μg/mL): 1 | glucose concentration, t = 0 ([2]; antibiotic 32 μg/mL): 144 | glucose concentration, t = 60 ([2]; antibiotic 32 μg/mL): 148 | glucose concentration, t = 120 ([2]; antibiotic 32 μg/mL): 145 | glucose concentration, t = 180 ([2]; antibiotic 32 μg/mL): 146 | glucose concentration, t = 240 ([2]; antibiotic 32 μg/mL): 145 | MIC, Measured ([2]; S.aureus, 80% threshold of reference rate of change, 60 to 180 minutes): 0.25 µg/mL | MIC, EUCAST, range in parentheses ([3]; range obtained by EUCAST from ISO 20776-1: 2006): (0.125-1) ug/mL | MIC, EUCAST ([3]; reference value, Mueller-Hinton agar, incubation 18±2 h): 0.25 to 0.5 µg/mL
